Data from PubChem BioAssay AID463203 (Broad Institute, 2010).
Calls of active or inactive are those of the source.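 How the source made its calls: active means more than half of replicate measurements showing over 20% loss of kinase signal relative to plate controls; inconclusive means some but at most half of replicates over 20% loss; inactive means no replicate over 20% signal loss.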

Biological target: Glycogen synthase kinase-3 alpha (Homo sapiens) (UniProt P49840)
Assay: concentration-response blocking of human GSK3A – biochemical, luminescence, cell-free homogeneous, retest, dose response (AID 463203)
Settings: GSK-3 alpha enzyme, ADP-Glo luminescence, 60 min

Sequence of Glycogen synthase kinase-3 alpha (Homo sapiens) (P49840 whole entry, looked up): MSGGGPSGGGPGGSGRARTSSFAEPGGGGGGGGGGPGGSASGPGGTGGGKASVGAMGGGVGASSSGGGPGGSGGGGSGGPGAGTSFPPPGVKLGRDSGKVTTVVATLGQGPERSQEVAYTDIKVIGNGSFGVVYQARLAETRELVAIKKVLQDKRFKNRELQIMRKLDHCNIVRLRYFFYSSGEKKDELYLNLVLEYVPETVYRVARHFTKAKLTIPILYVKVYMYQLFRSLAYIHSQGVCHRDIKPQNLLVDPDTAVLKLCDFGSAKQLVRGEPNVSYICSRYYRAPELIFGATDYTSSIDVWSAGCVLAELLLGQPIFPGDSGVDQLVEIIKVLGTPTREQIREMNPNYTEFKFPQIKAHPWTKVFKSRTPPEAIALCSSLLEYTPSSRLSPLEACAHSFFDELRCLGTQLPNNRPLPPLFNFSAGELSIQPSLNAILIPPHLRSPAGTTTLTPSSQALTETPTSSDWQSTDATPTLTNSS

Compound | AC50
COc1ccccc1N1C(=O)C2C(c3ccccc3F)NN(C(=O)c3ccc(C)cc3)C2C1=O (configuration not stated) | > 30 µM (inactive)
COc1ccc(CC(=S)N2CCOCC2)cc1 | > 30 µM (inactive)
Cc1nc2ccc(-c3ccccc3)cc2o1 | > 30 µM (inactive)
Cc1cc(C)c(S(=O)(=O)Nc2ccnc(-c3cccnc3)n2)c(C)c1 | 5.52 µM
Cc1ccc(C)c(N2CC(C(=O)Nc3nccs3)CC2=O)c1 (configuration not stated) | > 30 µM (inactive)
c1ccc2[nH]c(Cn3nnc4ccccc43)nc2c1 | > 30 µM (inactive)
CC(=S)/C=C1\Sc2ccccc2N1C | > 30 µM (inactive)
Nc1nonc1-n1nnc(C(=O)N/N=C/c2cccs2)c1CSc1ccccc1 | > 30 µM (inactive)
CC(=O)N(C)c1ccc(N=Cc2cc3c(cc2[N+](=O)[O-])OCO3)cc1 | 21.2 µM
Cc1cc(/C=N\NC(=O)c2cccs2)c(C)n1-c1ccc2ncccc2c1 | > 30 µM (inactive)
CCNc1ccc2noc3c2c1C(=O)c1ccccc1-3 | 10.8 µM
Cc1cccc(-c2nnc3n2N=C(c2ccccc2)CS3)c1 | > 30 µM (inactive)
Nc1nc(Nc2ccc(Cl)cc2)n[nH]1 | > 30 µM (inactive)
O=S(=O)(Nc1ccc(-c2nnc(SCc3ccc(Cl)cc3)o2)cc1)c1ccccc1 | > 30 µM (inactive)
NS(=O)(=O)c1ccc(NC(=O)CSc2nnc(-c3ccc(O)cc3)o2)cc1 | 4.93 µM
COC(=O)CNc1nc(Cl)nc(NC2CCCCC2)n1 | > 30 µM (inactive)
COC(=O)[C@H](C)NC(=O)NCc1ccccc1F | > 30 µM (inactive)
O=C(c1ccc(Cn2cnnn2)cc1)N1CCCC(Nc2ccc(F)cc2)C1 (configuration not stated) | 16.1 µM
CN1CCc2nc3sc(C#N)c(N)c3c(-c3cccs3)c2C1 | 0.675 µM
COc1ccc(NC(=O)c2nnn(Cc3ccc(SC)cc3)c2N)c(OC)c1 | > 30 µM (inactive)
COc1ccc2[nH]c(C(=O)O)c(NS(=O)(=O)c3ccc(OC)c(OC)c3)c2c1 | 6.63 µM
C[C@H](CO)N1C[C@H](C)[C@@H](CN(C)S(=O)(=O)c2ccccc2)Oc2c(NS(=O)(=O)c3ccc(F)cc3)cccc2C1=O | > 30 µM (inactive)
CCSc1nc2sc3c(c2c(=O)n1-c1ccccc1C)CCN(C)C3 | > 30 µM (inactive)
CCCCCCCOC(=O)C1=C(C)Nc2ncnn2C1c1cccs1 (configuration not stated) | > 30 µM (inactive)
O=C(NCC1CCCO1)c1ccc(NC(=O)c2cccc([N+](=O)[O-])c2)cc1 (configuration not stated) | > 30 µM (inactive)
Cc1c(C(=O)NCCc2ccccc2)oc2ccccc12 | > 30 µM (inactive)

Compound | AC50
O=[N+]([O-])c1ccc(Nc2nc(NC3CCCCC3)nc(N3CCCC3)n2)cc1 | > 30 µM (inactive)
COc1ccc2nc(NC(=O)CN3C(=O)NC4(CCCC4)C3=O)sc2c1 | 26.3 µM
N#CC(C#N)=Cc1c[nH]c(=O)c(C#N)c1Nc1ccccc1 | 9.4 µM
O=C(O)c1cccc2c1C(=O)c1ccccc1C2=O | > 30 µM (inactive)
O=C(CNC(=S)N(Cc1ccccc1)Cc1cccnc1)NC1CCCCC1 | > 30 µM (inactive)
COC1(OC)N=C(N)C2(C#N)C(c3cccc(Oc4ccccc4)c3)C12C#N (configuration not stated) | > 30 µM (inactive)
CCC/C(=N/NC(=O)c1nnn(-c2nonc2N)c1CN1CCCCC1)c1ccccc1 | 18.7 µM
CC(C)c1ccc(NC(=O)CSc2n[nH]c(=O)n2-c2ccc3c(c2)OCCO3)cc1 | > 30 µM (inactive)
COc1ccc2c(c1)C(SCC(=O)NCc1ccccc1)CC(C)(C)O2 (configuration not stated) | > 30 µM (inactive)
O=c1[nH]c(=O)n(C2CCCCCC2)c(O)c1C=NC1CCN(Cc2ccccc2)CC1 | 9.67 µM
N#Cc1c(Nc2ccccc2)c(/C=N/NCCO)c[nH]c1=O | > 30 µM (inactive)
COc1ccc(-c2csc3nc(C)nc(N4CCC(C)CC4)c23)cc1OC | > 30 µM (inactive)
CCN(CC)CCOc1ccc2c(c1)C(=NNC(=O)c1ccccn1)c1cc(OCCN(CC)CC)ccc1-2 | > 30 µM (inactive)
COc1cc(C2CC(=O)Nc3n[nH]c(-c4ccccc4)c32)cc(OC)c1OC (configuration not stated) | > 30 µM (inactive)
CN1CCc2nc3sc(C(=O)NC4CC4)c(N)c3cc2C1 | > 30 µM (inactive)
O=C(CSc1n[nH]c(=O)n1-c1ccc2c(c1)OCCO2)Nc1ccccc1 | > 30 µM (inactive)
CCOc1ccc2ncc(S(=O)(=O)c3ccccc3)c(N3CCN(c4ccc(OC)cc4)CC3)c2c1 | > 30 µM (inactive)
COc1cccc(N/C(SC)=C(/C#N)C(N)=O)c1 | 30 µM
Cc1cccc(-c2c3c(=O)n(C)c(=O)n(C)c3c3cccnn23)c1 | > 30 µM (inactive)
NC1=NC(=O)/C(=C\c2ccco2)S1 | > 30 µM (inactive)
COc1cc(C2CC(=O)c3c([nH]c(C(=O)OCCOC(C)C)c3C)C2)cc(OC)c1OC (configuration not stated) | > 30 µM (inactive)
COc1cc(CN2CCN(Cc3ccc(C)cc3)CC2)c([N+](=O)[O-])cc1OC | > 30 µM (inactive)
CCCCc1ccc(NC(=O)N[C@@H](CC(C)C)C(=O)O)cc1 | > 10 µM (inactive)
CCc1cccc(NC(=O)C2CCN(c3ncnc4sc(C)c(C)c34)CC2)c1 | > 30 µM (inactive)
COc1c(C)cc(Br)cc1C(=O)Nc1cccc(NC(=O)c2ccco2)c1 | > 30 µM (inactive)
Cc1ccc2nc(-c3ccccn3)[nH]c2c1 | > 30 µM (inactive)

Compound | AC50
Cc1cnc(NC(=O)C2CC(=O)N(c3cccc(Cl)c3)C2)s1 (configuration not stated) | 12.6 µM
Cc1noc(C)c1CSc1nnc(-c2ccccc2)o1 | > 30 µM (inactive)
COc1cc(/C=N/NC(=O)c2cccs2)ccc1O | > 30 µM (inactive)
COc1ccc(CCNc2nc(C)cc(C)n2)cc1OC | > 30 µM (inactive)
CC(C)c1onc(C(=O)N(C)C2CCCCC2)c1[N+](=O)[O-] | > 30 µM (inactive)
Cc1ccnc(NC(=O)Cn2c(=O)oc3cc(S(=O)(=O)N4CCCC4)ccc32)c1 | 26.9 µM
Nc1nc(N)nc(-c2cc([N+](=O)[O-])ccc2O)n1 | 2.41 µM
COc1ccc2cc(C(N)=O)c(=Nc3ccc(C)cc3)oc2c1 | > 30 µM (inactive)
O=C(Nc1ccccc1N1CCN(C(=O)c2ccccc2)CC1)c1ccc(Br)o1 | 3.51 µM
CCC(=O)C1CCCN(C(=O)CCc2nnc(-c3ccc4c(c3)OCO4)o2)C1 (configuration not stated) | > 30 µM (inactive)
CCSc1nnc([C@@H](N)Cc2c[nH]c3ccccc23)o1 | > 30 µM (inactive)
O=c1[nH]cnc(O)c1N=Nc1ccccc1 | 9.87 µM
COc1ccc(CCNC(=O)CSc2nc3[nH]ncc3c(=O)n2-c2cccc(C(F)(F)F)c2)cc1OC | > 30 µM (inactive)
Cc1ccc(-c2nnc(N3CCN(C(=O)COc4cccc(C)c4)CC3)c3ccccc23)cc1 | > 30 µM (inactive)
COc1ccc(NC(=O)CN(C)C2CCCCC2)c([N+](=O)[O-])c1 | > 30 µM (inactive)
Cc1nc2ncnn2c(C)c1Cc1c(Cl)cccc1Cl | > 30 µM (inactive)
N/C(=N\OC(=O)c1ccco1)c1ccc(Cl)cc1 | > 30 µM (inactive)
Cc1ccc(C2C(C#N)=C(N)Oc3n[nH]c(-c4cccnc4)c32)o1 (configuration not stated) | > 30 µM (inactive)
COc1ccc(Nc2nc(-c3cc4cccc(OC)c4oc3=O)cs2)cc1 | > 30 µM (inactive)
Cc1cccc(-c2nnc(SCc3nc4ccccc4[nH]3)n2Cc2ccco2)c1 | > 30 µM (inactive)
CCOC(=O)c1c(-c2cccc([N+](=O)[O-])c2)csc1N | 6.81 µM
CCOC(=O)C1CCCN(c2c(C(=O)c3ccccc3)cnc3ccccc23)C1 (configuration not stated) | > 30 µM (inactive)
CCOC(=O)c1cc(-c2ccc(F)cc2)n(CC(=O)NC(C)CC)c1C (configuration not stated) | > 30 µM (inactive)
O=C(O)c1cccc2c1C(=O)c1cc(Br)ccc1S2(=O)=O | > 30 µM (inactive)
N#Cc1c(-c2ccncc2)c2c([nH]c1=O)-c1ccccc1OC2 | > 30 µM (inactive)
Cc1ccc(N=C2NC(=O)/C(=C\c3ccco3)S2)cc1 | > 30 µM (inactive)

Compound | AC50
CN1/C(=C/C(=S)NC(=O)C2(C)CC2(Cl)Cl)C(C)(C)c2ccccc21 (configuration not stated) | > 30 µM (inactive)
NC(=O)Cn1cc(/C=N\NS(=O)(=O)c2cccc([N+](=O)[O-])c2)c2ccccc21 | > 30 µM (inactive)
Cc1cccc(OCC(=O)N2CCN(c3nnc(-c4ccccc4)c4ccccc34)CC2)c1 | > 30 µM (inactive)
COc1cccc(/C=N/n2nnnc2N)c1OCC#N | > 30 µM (inactive)
CCOC(=O)C1=C(c2ccccc2)Nc2ncnn2C1c1cccc(O)c1 (configuration not stated) | 22.9 µM
Fc1cccc(/C=N/Nc2ccc3ccccc3n2)c1 | > 30 µM (inactive)
O=C(COc1ccc(-n2cnnn2)cc1)Nc1ccc(F)c(F)c1F | > 30 µM (inactive)
Nc1c(C(=O)Nc2ccc3c(c2)OCCO3)nnn1Cc1ccccc1Cl | > 30 µM (inactive)
NC(=O)c1ccc(NCCCN2CCOCC2)c([N+](=O)[O-])c1 | > 30 µM (inactive)
CCOC(=O)c1c(NC(=O)C2CC2)sc(C)c1CC | > 30 µM (inactive)
CC(C)N=C(NC#N)SCc1ccc(F)cc1 | > 30 µM (inactive)
O=C1C(SCCO)=C(SCCO)C(=O)c2ccccc21 | > 30 µM (inactive)
O=C(O)c1ccc2c(c1)S(=O)(=O)c1cc(Cl)ccc1C2=O | 6.54 µM
Nn1c(-c2ccc(O)cc2)nnc1-c1ccc(O)cc1 | > 30 µM (inactive)
CC(=O)c1cccc(NC(=O)c2cc(-n3cnnc3)ccc2Cl)c1 | > 30 µM (inactive)
COc1ccc(-c2nsc3c(N4CCCCC4C)ncnc23)cc1 (configuration not stated) | > 30 µM (inactive)
COc1ccc(/C=C(/NC(=O)c2ccc([N+](=O)[O-])cc2)C(=O)NC(C)(C)C)cc1 | > 30 µM (inactive)
Cc1ccc(/C=N/NC(=O)c2nnn(-c3nonc3N)c2CN(C)C)s1 | > 30 µM (inactive)
CSc1nc2n(n1)C(c1ccccn1)C1=C(CC(C)(C)CC1=O)N2 (configuration not stated) | > 30 µM (inactive)
Cc1cccc(Nc2nc(C)cc(C)n2)c1 | > 30 µM (inactive)
CCCCCCCCCCOC(=O)Cn1c(COc2ccc(Cl)cc2)[n+](C)c2ccccc21 | > 30 µM (inactive)
C/C(=N\NC(=O)c1nnn(-c2nonc2N)c1CN(C)C)c1ccco1 | > 30 µM (inactive)
COc1ccc(NC(=O)Nc2ccc(F)cc2)c(C)c1 | > 30 µM (inactive)
COc1ccc(C=O)cc1OS(=O)(=O)c1ccccc1[N+](=O)[O-] | > 30 µM (inactive)
